Measured values from ChEMBL document CHEMBL5441142, “Probing the Merck KGaA Open Global health library for novel starting points for anti-schistosomal drug discovery” (2024).
Calls of active or inactive are those of the source. The rule behind the calls is not given here.

System: Schistosoma mansoni
Assay: In vitro activity screen on S. mansoni schistosomula at 10 uM. Compound-induced effects were assessed by quantifying larva motility and phenotype using Roboworm.
Type: functional, organism-based
Design: test concentration 10 uM, temperature 37 degree C, time incubation 72 h
Settings: Puerto Rican

| SMILES | In vitro activity |
| --- | --- |
| CCc1cc(Oc2cccnc2)c(S(C)(=O)=O)cc1C(=O)N=C(N)N | inactive |
| COc1cc(S(C)(=O)=O)ccc1-c1nc2ccncc2[nH]1 | inactive |
| COC(=O)c1cc(C(=O)N=C(N)N)c(C)cc1C | inactive |
| CCC(C)c1cc(C)c(C(=O)N=C(N)N)cc1S(C)(=O)=O (stereo not drawn) | inactive |
| COc1ccc(C(=O)N2CCCc3cc(C4=NNC(=O)SC4C)ccc32)cc1OC (stereo not drawn) | inactive |
| COCc1cc(-c2nc(-c3ccc(CN(C)CC(=O)O)cc3)no2)ccc1-c1ccccc1C | inactive |
| COCc1cc(-c2nc(-c3ccc(C(=O)O)c(F)c3)no2)ccc1-c1cc(F)ccc1OC | inactive |
| O=C(O)c1ccc(-c2nc(NCc3ccc4c(c3)OCO4)c3c(n2)sc2ccccc23)cc1 | inactive |
| CC1=C(C(=O)N2CCc3ccc(C(F)(F)F)cc3C2)C2(CCN(C3CCCCC3)CC2)OC1=O | inactive |
| CCCc1nn(C)c2c(=O)[nH]c(-c3cc(S(=O)(=O)Oc4ccc(=O)n(C)n4)ccc3OCC)nc12 | inactive |
| O=S(=O)(Nc1ccc2nsnc2c1)c1ccccc1-c1ccccc1 | inactive |
| CCN1CCC2(CC1)OC(=O)C(C)=C2C(=O)N1C[C@@H]2C[C@H]1CN2c1nccc(C(F)(F)F)n1 | inactive |
| Cc1cc(Oc2cccnc2)c([N+](=O)[O-])cc1C(=O)N=C(N)N | inactive |
| COc1ccccc1CCN1CCC2(CC1)OC(=O)C(C)=C2C(=O)N1CCc2ccc(C(F)(F)F)cc2C1 | inactive |
| CCCSc1cc(C)c(C(=O)N=C(N)N)cc1S(C)(=O)=O | inactive |
| CC1(C)Oc2ccc(C#N)cc2[C@H](n2ccccc2=O)[C@H]1O | inactive |
| COCc1cc(-c2nc(-c3cc(F)cc(CN(C)CCC(=O)O)c3)no2)ccc1-c1ccccc1C | inactive |
| C[C@H]1CCCCN1c1ccc(-c2nc(-c3cccc(CN(C)CC(=O)O)c3)no2)cc1C(F)(F)F | inactive |
| CC1(C)C=C(n2ccccc2=O)c2cc(C#N)ccc2O1 | inactive |
| COc1ccc(OCC(N)=O)cc1-c1cn2cc(C(=O)NCCc3c(OC)cccc3OC)sc2n1 | inactive |
| CC1=C(C(=O)N2CCc3ncc(C(F)(F)F)cc3C2)C2(CCN(C3CCCCC3)CC2)OC1=O | inactive |
| Cc1cc2c(cc1C(=O)N=C(N)N)S(=O)(=O)C(C)(C)/C2=N\O | inactive |

| SMILES | In vitro activity |
| --- | --- |
| Cc1cc2c(cc1C(=O)N=C(N)N)S(=O)(=O)CCC2C (stereo not drawn) | inactive |
| Cc1cc(Oc2ccccc2)c(S(C)(=O)=O)cc1C(=O)N=C(N)N | inactive |
| COCc1cc(-c2nc(-c3cccc(CN(C)CC(=O)O)c3)no2)ccc1N1CCCC1C (stereo not drawn) | inactive |
| CNC(=O)c1cc(Oc2ccc(NC(=O)Nc3cc(C(F)(F)F)ccc3-n3cncn3)cc2)ccn1 | inactive |
| C1=C(c2ccccc2)CCN(CCCCc2c[nH]c3ccccc23)C1 | inactive |
| COc1cc(C(=O)NCc2cn(Cc3ccc(Cl)c(Cl)c3)nn2)ccc1-c1ccnc(C)c1 | inactive |
| COc1ccc(CNc2nc(-c3ccc(S(=O)(=O)O)cc3)nc3sc4c(c23)CCCC4)cc1Cl | inactive |
| CCc1cc(C(=O)NCc2ccc3c(c2)OCO3)c(NC(=O)c2ccc(C(=O)O)cc2)s1 | inactive |
| COc1cc(SCCO)ccc1-c1nc2ccncc2[nH]1 | inactive |
| O=C(Nc1ccc(CNc2ncnc3ccccc23)cc1)c1ccc(Cl)c(F)c1 | inactive |
| COCc1cc(-c2nc(-c3cc(F)cc(CN(C)CC(=O)O)c3)no2)ccc1-c1ccccc1C | inactive |
| CCCCc1nc2ccn(CC(=O)N(C)C)c(=O)c2n1Cc1ccc(-c2ccccc2-c2nnn[nH]2)cc1 | inactive |
| COCc1cc(-c2nc(-c3cccc(CN(C)CC(=O)O)c3)no2)ccc1N1CCCCC1 | inactive |
| COc1ccc(OCC(=O)O)cc1-c1cn2cc(C(=O)NCCc3c(OC)cccc3OC)sc2n1 | inactive |
| C=CC(C)c1cc(C)c(C(=O)N=C(N)N)cc1S(C)(=O)=O (stereo not drawn) | inactive |
| Cc1cc(C2CCC2)c(S(C)(=O)=O)cc1C(=O)N=C(N)N | inactive |
| CC1=C(C(=O)N2CCc3ccc(C(F)(F)F)cc3C2)C2(CCN(C3CCOCC3)CC2)OC1=O | inactive |
| CCCN1CCC2(CC1)OC(=O)C(C)=C2C(=O)N1CCc2ncc(C(F)(F)F)cc2C1 | inactive |
| O=C(O)c1ccc(C(=O)Nc2sc3c(c2C(=O)NCc2ccc4c(c2)OCO4)CCCC3)cc1 | inactive |
| CN(CCCCc1ccc(F)cc1)CCC(=O)c1ccc2[nH]c(=O)oc2c1 | inactive |
| COc1cc(C(=O)Nc2cn(Cc3ccc(Cl)cc3)nn2)ccc1-n1cnc(C)c1 | inactive |
| COc1ccc(N2C[C@H](CN3CCC(O)(c4ccc5c(c4)OCO5)CC3)OC2=O)cc1 | inactive |

| SMILES | In vitro activity |
| --- | --- |
| CCOC(=O)c1ccc(C2=CSC3=Nc4ccccc4CCN23)cc1 | inactive |
| Cc1cc(-c2ccccc2)c(S(C)(=O)=O)cc1C(=O)N=C(N)N | inactive |
| COc1ccc(CNc2nc(CCCCC(=O)O)nc3sc4ccccc4c23)cc1Cl | inactive |
| CCOc1cc(CCC(=O)NC[C@H]2S[C@@H](c3ccc(C#Cc4ccccc4)cc3)N(c3cccc(C(N)=O)c3)C2=O)ccc1OC | inactive |
| Cc1cc(C)c(S(C)(=O)=O)cc1C(=O)N=C(N)N | inactive |
| CCOC(=O)CC1=NN(c2ccc(C(=O)O)cc2)C(=O)/C1=C\Nc1ccccc1CC | inactive |
| CCCc1cc(C)c(C(=O)N=C(N)N)cc1S(C)(=O)=O | inactive |
| CCC(C)Oc1ccc(-c2nc(-c3cc(F)cc(CN(C)CCC(=O)O)c3)no2)cc1COC (stereo not drawn) | inactive |
| CC1(C)Oc2ccc(C#N)cc2[C@@H](n2ccccc2=O)[C@]1(C)O | inactive |
| COc1cc(C(=O)N(C)C)ccc1-c1cc2nccc(-c3ccc4ccncc4c3)c2o1 | inactive |
| COc1ccc(CNc2nc(CCCC(=O)O)nc3oc4c(c23)CCCC4)cc1Cl | inactive |
| Cn1nc(O[C@@H]2c3cc(C#N)ccc3OC(C)(C)[C@H]2O)ccc1=O | inactive |
| COc1nc(/C=C/c2nc3n(n2)CCC[C@@H]3c2ccccc2C(F)(F)F)ccc1-n1cnc(C)c1 | inactive |
| COc1cc(OC)c(CCNC(=O)c2cn3cc(-c4cc(OCC(=O)NCCO)ccc4OC)nc3s2)c(OC)c1 | inactive |
| COCc1cc(-c2nc(-c3ccc(CN(C)CC(=O)O)c(F)c3)no2)ccc1-c1ccccc1C | inactive |
| CCCCc1nc2ccn(CC(=O)N3CCCCC3)c(=O)c2n1Cc1ccc(-c2ccccc2S(=O)(=O)NC(=O)OCc2ccccc2)cc1F | inactive |
| CCCCCCN(Cc1ccc(C#Cc2ccc(CCCC)cc2)cc1)c1ccc(O)c(C(=O)O)c1 | inactive |
| CCOc1cc(C2=NN(C(=O)c3ccc(NC(=O)c4ccc(OC)cc4)cc3)CCC2)ccc1OC | inactive |
| Cc1cc(-c2ccc[nH]2)c(S(C)(=O)=O)cc1C(=O)N=C(N)N | inactive |
| CCC(CC)N1CCC2(CC1)OC(=O)C(C)=C2C(=O)N1CCc2ncc(C(F)(F)F)cc2C1 | inactive |
| CCCc1nn(C)c2c(=O)[nH]c(-c3cc(C(=O)N=C(N)N)ccc3OCC)nc12 | inactive |
| COc1cc(OC)cc(-c2cn3cc(C(=O)NCCc4c(OC)cc(OC)cc4OC)sc3n2)c1 | inactive |

| SMILES | In vitro activity |
| --- | --- |
| O=C(O)c1cn(Cc2ccc(-n3cccn3)cc2)c2c(F)ccc(F)c2c1=O | inactive |
| CCCN1CCC2(CC1)OC(=O)C(C)=C2C(=O)N1CCc2ccc(C(F)(F)F)cc2C1 | inactive |
| COc1ccc(OC)c(-c2cn3cc(C(=O)NCCc4cccc(OC)c4OC)ccc3n2)c1 | inactive |
| CCCCc1nc2ccn(Cc3ccccc3C(=O)O)c(=O)c2n1Cc1ccc(-c2ccccc2-c2nn[nH]n2)cc1 | inactive |
| COc1ccccc1-n1c(=S)[nH]c2scc(C)c2c1=O | inactive |
| COc1cc(OC)c(CCNC(=O)c2cn3cc(-c4cc(OCC(=O)O)ccc4OC)nc3s2)c(OC)c1 | inactive |
| CCN1CCC2(CC1C)OC(=O)C(C)=C2C(=O)N1CCc2ccc(C(F)(F)F)cc2C1 (stereo not drawn) | inactive |
| CC1=C(C(=O)N2CCc3ccc(C(F)(F)F)cc3C2)C2(CCN(C)CC2)OC1=O | inactive |
| O=C(O)c1ccc(-c2nc(NCc3ccccc3)c3c4c(sc3n2)CCCC4)cc1 | inactive |
| CC1=C(C(=O)N2CCN(c3cccc(C(F)(F)F)c3)CC2)C2(CCN(C(C)C)CC2)OC1=O | inactive |
| COCc1cc(-c2nc(-c3ccc(CN(C)CC(=O)O)c(F)c3)no2)ccc1-c1cccc(F)c1C | inactive |
| CCN1CCC2(CC1)OC(=O)C(C)=C2C(=O)N1C[C@@H]2C[C@H]1CN2c1cc(C(F)(F)F)ccn1 | inactive |
| CC(c1cccc(-c2nnn[nH]2)c1)N(Cc1ccccc1)S(=O)(=O)c1ccc(Cl)cc1 (stereo not drawn) | inactive |
| Cc1cc(OC(F)(F)F)c(S(C)(=O)=O)cc1C(=O)N=C(N)N | inactive |
| Cc1c(O)nc(N)nc1-c1cc2ccccc2o1 | inactive |
| COc1ccc(OC)c(-c2cn3cc(C(=O)NCCc4cc(OC)c5c(c4OC)OCO5)sc3n2)c1 | inactive |
| CC1=C(C(=O)N2CCc3ncc(C(F)(F)F)cc3C2)C2(CCN(C3CCCC3)CC2)OC1=O | inactive |
| CCCc1nn(C)c2c(=O)[nH]c(-c3cc(S(=O)(=O)Oc4nc(C)ccc4C#N)ccc3OCC)nc12 | inactive |
| COc1ccc(N2C(=O)c3ccccc3NC23CN(Cc2cccc(C)c2)C3)cc1 | inactive |
| COc1cc(Nc2nccn3nc(Nc4cccc(C(F)(F)F)c4)nc23)cc(OC)c1 | inactive |
| COc1ccc(OCC(=O)O)cc1-c1cn2cc(C(=O)NCCc3c(OC)cc(Cl)cc3OC)sc2n1 | inactive |
| CCc1ccccc1N/C=C1\C(=O)N(c2ccc(S(=O)(=O)O)cc2)N=C1C | inactive |
